Measurements reported in US9096832B2, “Differentiation of human embryonic stem cells” (LifeScan, Inc., priority 2007, dated 2015).

Legend:
[1] = system: human embryonic stem cell line H7; assay: FACS of protein markers after activin A treatment (Table IIB); assay type: cell-based
Excerpt: The level of expression of definitive endoderm markers was examined by PCR (FIG. 1), FACS (results summarized in Table II), and immunohistochemistry (FIG. 2).
CXCR4 positive cells were also highly positive for C-kit, EPCAM, CD99, and negative for CD9. The expression pattern for these markers was consistent among all three hES cell lines examined (Table IIB for H7 and Table IIC for H1). […] In parallel, almost 100% of the differentiated cells were […] (FIG. 2).
Adhered cells were removed from culture plates by five-minute incubation with TrypLE™ Express solution (Invitrogen, CA). Released cells were resuspended in human embryonic stem cell culture medium and recovered by centrifugation, followed by washing and resuspending the cells in a staining buffer consisting of 2% BSA, 0.05% sodium azide in PBS (Sigma, MO). As appropriate, the cells were Fc-receptor blocked for 15 minutes using a 0.1% γ-globulin (Sigma) solution. […] Controls included appropriate isotype matched antibodies, unstained cells, and cells stained only with secondary conjugated antibody. All incubations with antibodies were performed for 30 mins at 4° C. after which the cells were washed with the staining buffer. Samples that were stained with unconjugated primary antibodies were incubated for an additional 30 mins at 4° C. with secondary conjugated PE or —APC labeled antibodies. See Table I for a list of secondary antibodies used. Washed cells were pelleted and resuspended in the staining buffer, and the cell surface molecules were identified using a FACS Array (BD Biosciences) instrument, collecting at least 10,000 events.

H9 cells = assay: Immunofluorescence staining of DE markers, activin A +/- Wnt-3a; assay type: cell-based, human
Excerpt: Day 5 DE cultures of H9 cells were stained according to Example 10 for SOX-17, HNF-3B, GATA-4, N-cadherin, and E-cadherin. All nuclei were counter stained with DAPI.

[2] = system: H9P46-P48 embryonic stem cells; assay: Definitive endoderm on […]: effect of GSK-3B inhibitor IX (FACS CXCR4, PCR); assay type: cell-based, human; settings: 20 ng/ml Wnt-3a or 100-1000 nM GSK-3B inhibitor, day 5
Description: In order to confirm that the effect of Wnt-3a was through the Wnt pathway, a GSK-3 inhibitor was used to activate the downstream targets of Wnt, such as beta catenin. […] FIG. 29, panel a depicts the expression of CXCR4 by FACS at day 5 in the absence of Wnt-3a or GSK-3B inhibitor, b) +20 ng/ml Wnt-3a, c) +1000 nM GSK-3B inhibitor IX, d) +500 nM GSK-3B inhibitor IX, e) +100 nM GSK-3B inhibitor IX, f) +10 nM GSK-3B inhibitor IX, g) +100 nM GSK-3B inhibitor IX for days 1-2, and h) +10 nM GSK-3B inhibitor IX for days 1-2.

[3] = system: H9P46 embryonic stem cells; assay: Definitive endoderm on […]: effective dose of Wnt-3a (FACS, PCR, cell number); assay type: cell-based, human
Description: Control cultures were not treated with Wnt-3a. FIG. 27, panel a depicts the expression of CXCR4 by FACS at day 5 in the absence of Wnt-3a, b) 10 ng/ml Wnt-3a, c) 20 ng/ml Wnt-3a and d) 50 ng/ml Wnt-3a. In the absence of Wnt-3a the expression of CXCR4 was very low. […] Real-time PCR results (FIG. 28, panel a) also confirm this finding.
In a separate study, H9p52 cells were plated on 1:30 low growth factor […]™. For the first 2 days of the DE protocol a range of Wnt-3a doses was used: 10 ng/ml, 5 ng/ml and 1 ng/ml. […] The number of cells at the end of the experiment is noted in FIG. 28, panel c.

| Substance | CXCR4+ ([1]; 1-day AA 100 ng/ml) | CXCR4+ C-Kit+ ([1]; 1-day AA 100 ng/ml) | CXCR4+ CD9+ ([1]; 1-day AA 100 ng/ml) | CXCR4+ EPCAM+ ([1]; 1-day AA 100 ng/ml) | CXCR4+ ([1]; 3-day AA 100 ng/ml) | CXCR4+ C-Kit+ ([1]; 3-day AA 100 ng/ml) | CXCR4+ CD9+ ([1]; 3-day AA 100 ng/ml) | CXCR4+ EPCAM+ ([1]; 3-day AA 100 ng/ml) | CXCR4+ ([1]; 5-day AA 100 ng/ml) | CXCR4+ C-Kit+ ([1]; 5-day AA 100 ng/ml) | CXCR4+ CD9+ ([1]; 5-day AA 100 ng/ml) | CXCR4+ EPCAM+ ([1]; 5-day AA 100 ng/ml) | nuclei stained positive for SOX-17, HNF-3beta, and GATA-4 (H9 cells; 20 ng/ml Wnt-3a, Day 5 DE cultures) | expression of N-cadherin (H9 cells; addition of Wnt-3a) | expression of e-cadherin (H9 cells; addition of Wnt-3a) | number of CXCR4 positive cells [2] | number of CXCR4 positive cells ([3]; 10-50 ng/ml Wnt-3a, day 5) | Wnt3a dose sufficient to reach optimal cell expansion and definitive endoderm differentiation ([3]; for 2 days, H9p52 on 1:30 low growth factor MATRIGEL) |
| --- | --- | --- | --- | --- | --- | --- | --- | --- | --- | --- | --- | --- | --- | --- | --- | --- | --- | --- |
| Activin A: activin A (a member of the TGFβ superfamily), R&D Systems; 'w/o wnt' in Table VII = 100 ng/ml Activin A without Wnt3a | 6% | 2.97% | 8.13% | 14.58% | 38% | 31.56% | 24.11% | 36.67% | 65.5% | 55.21% | 2.1% | 54.5% |  |  |  |  |  |  |
| Wnt-3a |  |  |  |  |  |  |  |  |  |  |  |  | significantly larger number | enhanced expression | significant loss of expression | significantly increased | significantly increased | 10 ng/mL |
